Experimental data as given in US10501479B2, “Benzenesulfonyl-asymmetric ureas and medical uses thereof” (HELSINN HEALTHCARE SA, priority 2016, dated 2019).
Read-outs that look alike come from different tables or passages of the source.

What was measured:
Type in all cases: cell-based
[1] = biological target: T1, recombinant human ghrelin receptor (HEK293/GRLN) (Homo sapiens, UniProt Q92847); assay: Ghrelin inverse agonist potency (EC50) with IP-1 (IP-One HTRF) assay; details: IP-1 assay
T1 construct: expressed in transfected cells
T1 sequence (Q92847 whole entry): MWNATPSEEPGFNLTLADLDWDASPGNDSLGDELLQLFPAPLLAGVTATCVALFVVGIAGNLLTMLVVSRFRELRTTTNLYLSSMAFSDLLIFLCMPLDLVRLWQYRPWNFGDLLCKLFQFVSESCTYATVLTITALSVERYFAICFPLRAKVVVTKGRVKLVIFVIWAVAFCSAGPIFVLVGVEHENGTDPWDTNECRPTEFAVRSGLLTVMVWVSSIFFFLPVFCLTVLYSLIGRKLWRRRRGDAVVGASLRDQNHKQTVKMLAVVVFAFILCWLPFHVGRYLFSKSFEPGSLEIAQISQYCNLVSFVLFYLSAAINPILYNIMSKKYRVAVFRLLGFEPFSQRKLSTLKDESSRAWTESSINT
Outline: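 IP-1 accumulation was measured by HTRF (IP1-d2/Tb-cryptate, 620/665 nm read after 1 hour at room temperature) following 1 hour of compound treatment at 37° C. Cells were HEK293 stably expressing human ghrelin receptor, plated a day earlier on Matrigel. Inverse agonist potency was reported as EC50.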

[2] = biological target: T2, GHSR-1a (HEK293/GHSR1a cell line) (Homo sapiens, UniProt Q92847); assay: Ghrelin agonist potency (EC50) with calcium FLIPR assay
T2 construct: expressed in transfected cells; host or cells: HEK293/GHSR1a cell line
T2 sequence (Q92847 whole entry): as above
Outline: (§1)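 Calcium flux was followed 2 min by FLIPR in dye-loaded HEK293/GHSR1a cells. For antagonist IC50, compound and ghrelin (10 nM) were co-added at t=20 sec and inhibition of the ghrelin signal fitted; for agonist EC50, compound alone was added at t=20 sec and dose-response fitted.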

[3] = biological target: T2, GHSR-1a (HEK293/GHSR1a cell line); assay: Ghrelin antagonist potency (IC50) with calcium FLIPR assay, ghrelin 10 nM
Outline: as §1

[4] = HEK293/GRLN, read-out: Activity EC50 (ghrelin inverse agonist potency)
[5] = HEK293/GHSR1a, read-out: Activity EC50/EMax: EC50 (ghrelin agonist potency)
[6] = HEK293/GHSR1a, ghrelin 10 nM, read-out: Activity IC50 (ghrelin antagonist potency)
[7] = ghrelin inverse agonist potency, read-out: Activity EC50
[8] = ghrelin agonist potency, read-out: Activity EC50/EMax
[9] = ghrelin antagonist potency, read-out: Activity IC50
[10] = heading: Activity EC50/EMax, ghrelin agonist potency, read-out: Activity EC50/EMax

SMILES	EC50 [1, 4]	EC50 [2, 5]	IC50 [3, 6]	EC50 [1, 7]	EC50 [2, 8]	IC50 [3, 9]	EC50 [2, 10]
COc1ccc(C(C)NC(=O)Nc2ccc(S(=O)(=O)Cc3ccc4c(c3)CCN(C)C4)cc2OC)cc1 (stereo not drawn) [H1442, 1-(2-methoxy-4-(((2-methyl-1,2,3,4-tetrahydroisoquinolin-6-yl)methyl)sulfonyl)phenyl)-3-(1-(4-methoxyphenyl)ethyl)urea]	16.4 nM	> 30000 nM	58.1 nM				
COc1cc(S(=O)(=O)Cc2ccc3c(c2)CCNC3)ccc1NC(=O)N(C)C(C)c1cccc(Cl)c1Cl (stereo not drawn) [H1443, 1-(1-(2,3-dichlorophenyl)ethyl)-3-(2-methoxy-4-(((1,2,3,4-tetrahydroisoquinolin-6-yl)methyl)sulfonyl)phenyl)-1-methylurea]	85.8 nM	> 30000 nM	68 nM				
COc1ccc(C(C)NC(=O)Nc2ccc(S(=O)(=O)Cc3ccc4c(c3)CNC4)cc2)cc1OC (stereo not drawn) [H1444, 1-(1-(3,4-dimethoxyphenyl)ethyl)-3-(4-((isoindolin-5-ylmethyl)sulfonyl)phenyl)urea]	185 nM	> 30000 nM	2860 nM				
COc1ccc(C(C)NC(=O)Nc2ccc(S(=O)(=O)Cc3ccc4c(c3)CN(C)C4)cc2)cc1OC (stereo not drawn) [H1449, 1-(1-(3,4-dimethoxyphenyl)ethyl)-3-(4-(((2-methylisoindolin-5-yl)methyl)sulfonyl)phenyl)urea]	928 nM	> 30000 nM	4170 nM				
COc1cccc(OC)c1C(C)NC(=O)Nc1ccc(S(=O)(=O)Cc2ccc3c(c2)CNC3)cc1 (stereo not drawn) [H1450, 1-(1-(2,6-dimethoxyphenyl)ethyl)-3-(4-((isoindolin-5-ylmethyl)sulfonyl)phenyl)urea]	182 nM	> 30000 nM	290 nM				
COc1cccc(OC)c1C(C)NC(=O)Nc1ccc(S(=O)(=O)Cc2ccc3c(c2)CN(C)C3)cc1 (stereo not drawn) [H1451, 1-(1-(2,6-dimethoxyphenyl)ethyl)-3-(4-(((2-methylisoindolin-5-yl)methyl)sulfonyl)phenyl)urea]	33.3 nM	> 30000 nM	68.5 nM				
CC(NC(=O)Nc1ccc(S(=O)(=O)Cc2ccc3c(c2)CNC3)cc1)c1ccc2c(c1)OCO2 (stereo not drawn) [H1452, 1-(1-(benzo[d][1,3]dioxol-5-yl)ethyl)-3-(4-((isoindolin-5-ylmethyl)sulfonyl)phenyl)urea]	34.8 nM	> 30000 nM	87 nM				
CC(NC(=O)Nc1ccc(S(=O)(=O)Cc2ccc3c(c2)CN(C)C3)cc1)c1ccc2c(c1)OCO2 (stereo not drawn) [H1453, 1-(1-(benzo[d][1,3]dioxol-5-yl)ethyl)-3-(4-(((2-methylisoindolin-5-yl)methyl)sulfonyl)phenyl)urea]	46.8 nM	> 30000 nM	109 nM				
NC(=O)C(NC(=O)Nc1ccc(S(=O)(=O)Cc2ccc3c(c2)CNC3)cc1)c1ccccc1 (stereo not drawn) [H1457, 2-(3-(4-((isoindolin-5-ylmethyl)sulfonyl)phenyl)ureido)-2-phenylacetamide]				123 nM	> 30000 nM	16600 nM	
CC(NC(=O)N(O)c1ccc(S(=O)(=O)Cc2ccc3c(c2)CN(C)C3)cc1)c1ccccc1 (stereo not drawn) [H1458, 1-hydroxy-1-(4-(((2-methylisoindolin-5-yl)methyl)sulfonyl)phenyl)-3-(1-phenylethyl)urea]				288 nM	> 30000 nM	1170 nM	
CC(c1ccccc1)N(C)C(=O)Nc1ccc(S(=O)(=O)Cc2ccc3c(c2)CNC3)cc1O (stereo not drawn) [H1460, 3-(2-hydroxy-4-((isoindolin-5-ylmethyl)sulfonyl)phenyl)-1-methyl-1-(1-phenylethyl)urea]				163 nM	> 30000 nM	536 nM	
COc1cc(S(=O)(=O)Cc2nc3c(s2)CNC3)ccc1NC(=O)N[C@@H](C)c1ccccc1 [H1463, (S)-1-(4-(((5,6-dihydro-4H-pyrrolo[3,4-d]thiazol-2-yl)methyl)sulfonyl)-2-methoxyphenyl)-3-(1-phenylethyl)urea]				289 nM	> 30000 nM	1150 nM	
COc1cc(S(=O)(=O)Cc2nc3c(s2)CN(C)C3)ccc1NC(=O)N[C@@H](C)c1ccccc1 [H1464, (S)-1-(2-methoxy-4-(((5-methyl-5,6-dihydro-4H-pyrrolo[3,4-d]thiazol-2-yl)methyl)sulfonyl)phenyl)-3-(1-phenylethyl)urea]				290 nM	> 30000 nM	2960 nM	
C[C@H](NC(=O)Nc1ccc(S(=O)(=O)Cc2nc3c(s2)CNC3)cc1)c1ccccc1 [H1465, (S)-1-(4-(((5,6-dihydro-4H-pyrrolo[3,4-d]thiazol-2-yl)methyl)sulfonyl)phenyl)-3-(1-phenylethyl)urea]				678 nM	> 30000 nM	5290 nM	
COC(=O)c1cc(S(=O)(=O)Cc2ccc3c(c2)CN(C)C3)ccc1NC(=O)NC(C)c1ccccc1 (stereo not drawn) [H1466, methyl 5-(((2-methylisoindolin-5-yl)methyl)sulfonyl)-2-(3-(1-phenylethyl)ureido)benzoate]				16.8 nM	> 30000 nM	72.4 nM	
CC(NC(=O)Nc1ccc(S(=O)(=O)Cc2ccc3c(c2)CNC3)cc1CO)c1ccccc1 (stereo not drawn) [H1467, 1-(2-(hydroxymethyl)-4-((isoindolin-5-ylmethyl)sulfonyl)phenyl)-3-(1-phenylethyl)urea]				19.7 nM	> 30000 nM	121 nM	
CC(NC(=O)Nc1ccc(S(=O)(=O)Cc2ccc3c(c2)CN(C)C3)cc1CO)c1ccccc1 (stereo not drawn) [H1468, 1-(2-(hydroxymethyl)-4-(((2-methylisoindolin-5-yl)methyl)sulfonyl)phenyl)-3-(1-phenylethyl)urea]				18.2 nM	> 30000 nM	80.6 nM	
CC(c1ccccc1)n1c(=O)[nH]c2ccc(S(=O)(=O)Cc3ccc4c(c3)CNC4)cc2c1=O (stereo not drawn) [H1469, 6-((isoindolin-5-ylmethyl)sulfonyl)-3-(1-phenylethyl)quinazoline-2,4(1H,3H)-dione]				26 nM		110 nM	110 nM
CC(c1ccccc1)n1c(=O)[nH]c2ccc(S(=O)(=O)Cc3ccc4c(c3)CN(C)C4)cc2c1=O (stereo not drawn) [H1470, 6-(((2-methylisoindolin-5-yl)methyl)sulfonyl)-3-(1-phenylethyl)quinazoline-2,4(1H,3H)-dione]				22.3 nM		483 nM	227 nM
CC(c1ccccc1)N(O)C(=O)Nc1ccc(S(=O)(=O)Cc2ccc3c(c2)CN(C)C3)cc1 (stereo not drawn) [H1471, 1-hydroxy-3-(4-(((2-methylisoindolin-5-yl)methyl)sulfonyl)phenyl)-1-(1-phenylethyl)urea]				3.89 nM	> 30000 nM	11.8 nM	
CC(NC(=O)N(O)c1ccc(S(=O)(=O)Cc2ccc3c(c2)CNC3)cc1)c1ccccc1 (stereo not drawn) [H1473, 1-hydroxy-1-(4-((isoindolin-5-ylmethyl)sulfonyl)phenyl)-3-(1-phenylethyl)urea]				515 nM	> 30000 nM	2240 nM	
CC(c1ccccc1)N(C)C(=O)Nc1ccc(S(=O)(=O)Cc2ccc3c(c2)CN(C)C3)cc1O (stereo not drawn) [H1474, 3-(2-hydroxy-4-(((2-methylisoindolin-5-yl)methyl)sulfonyl)phenyl)-1-methyl-1-(1-phenylethyl)urea]				133 nM	> 30000 nM	700 nM	
COc1ccc(C(C)NC(=O)Nc2ccc(S(=O)(=O)Cc3ccc4c(c3)CNC4)cc2)cc1Cl (stereo not drawn) [H1475, 1-(1-(3-chloro-4-methoxyphenyl)ethyl)-3-(4-((isoindolin-5-ylmethyl)sulfonyl)phenyl)urea]				18.9 nM	> 30000 nM	32.2 nM	
COc1ccc(C(C)NC(=O)Nc2ccc(S(=O)(=O)Cc3ccc4c(c3)CN(C)C4)cc2)cc1Cl (stereo not drawn) [H1476, 1-(1-(3-chloro-4-methoxyphenyl)ethyl)-3-(4-(((2-methylisoindolin-5-yl)methyl)sulfonyl)phenyl)urea]				24.1 nM	> 30000 nM	42.6 nM	
COc1ccc(CNC(=O)Nc2ccc(S(=O)(=O)Cc3ccc4c(c3)CN(C)C4)cc2)cc1Cl [H1478, 1-(3-chloro-4-methoxybenzyl)-3-(4-(((2-methylisoindolin-5-yl)methyl)sulfonyl)phenyl)urea]				19.6 nM	> 30000 nM	40.3 nM	
CC(NC(=O)Nc1ccc(C(=O)Nc2ccc3c(c2)CNC3)cc1)c1ccccc1 (stereo not drawn) [H1479, N-(isoindolin-5-yl)-4-(3-(1-phenylethyl)ureido)benzamide]				1950 nM	> 30000 nM	2500 nM	
CC(NC(=O)Nc1ccc(C(=O)Nc2ccc3c(c2)CN(C)C3)cc1)c1ccccc1 (stereo not drawn) [H1480, N-(2-methylisoindolin-5-yl)-4-(3-(1-phenylethyl)ureido)benzamide]				> 10000 nM	> 30000 nM	24200 nM	
O=C(NCC1COc2ccccc2O1)Nc1ccc(S(=O)(=O)Cc2ccc3c(c2)CNC3)cc1 (stereo not drawn) [H1483, 1-((2,3-dihydrobenzo[b][1,4]dioxin-2-yl)methyl)-3-(4-((isoindolin-5-ylmethyl)sulfonyl)phenyl)urea]				24.1 nM	> 30000 nM	53.8 nM	
CC(NC(=O)Nc1ccc(S(=O)(=O)Cc2ccc3c(c2)CNC3)cc1Br)c1ccccc1 (stereo not drawn) [H1485, 1-(2-bromo-4-((isoindolin-5-ylmethyl)sulfonyl)phenyl)-3-(1-phenylethyl)urea]				10.2 nM	> 30000 nM	19.1 nM	
